Active and inactive are the calls of the source. The calls are words filed in the database; no cut-off is given here.
Assays:
[1] = system: MCF7; experiment: Cytotoxicity against human MCF7 cells assessed as reduction in cell viability after 48 hrs by MTT assay; type: functional, cell-based; details: MCF7, 48 h
[2] = system: A549; experiment: Cytotoxicity against human A549 cells assessed as reduction in cell viability after 48 hrs by MTT assay; type: functional, cell-based; details: A549, 48 h
[3] = system: HeLa; experiment: Cytotoxicity against human HeLa cells assessed as reduction in cell viability after 48 hrs by MTT assay; type: functional, cell-based
[4] = system: HeLa; experiment: Induction of apoptosis in human HeLa cells assessed as necrotic cells at 5 uM after 24 hrs by Annexin-V FITC/propidium iodide staining based flow cytometry (reference value: 1.81%); type: functional
[5] = system: HeLa; experiment: Cell cycle arrest in human HeLa cells assessed as accumulation at G1 phase at 10 uM after 24 hrs by propidium iodide staining based flow cytometry (reference value: 66.42%); type: functional
[6] = system: HeLa; experiment: Cell cycle arrest in human HeLa cells assessed as accumulation at G2/M phase at 10 uM after 24 hrs by propidium iodide staining based flow cytometry (reference value: 9.89%); type: functional
[7] = system: HeLa; experiment: Induction of apoptosis in human HeLa cells assessed as nuclear fragmentation after 24 hrs by acridine orange/ethidium bromide staining based fluorescence confocal microscopic method; type: functional, cell-based
[8] = system: HeLa; experiment: Induction of apoptosis in human HeLa cells assessed as early apoptotic cells at 5 uM after 24 hrs by Annexin-V FITC/propidium iodide staining based flow cytometry (reference value: 2.36%); type: functional
[9] = system: HeLa; experiment: Cell cycle arrest in human HeLa cells assessed as accumulation at S phase at 10 uM after 24 hrs by propidium iodide staining based flow cytometry (reference value: 23.69%); type: functional
[10] = system: HeLa; experiment: Induction of apoptosis in human HeLa cells assessed as late apoptotic cells at 10 uM after 24 hrs by Annexin-V FITC/propidium iodide staining based flow cytometry (reference value: 0.29%); type: functional
[11] = system: HeLa; experiment: Induction of apoptosis in human HeLa cells assessed as early apoptotic cells at 10 uM after 24 hrs by Annexin-V FITC/propidium iodide staining based flow cytometry (reference value: 2.36%); type: functional
[12] = system: HeLa; experiment: Induction of apoptosis in human HeLa cells assessed as live cells at 10 uM after 24 hrs by Annexin-V FITC/propidium iodide staining based flow cytometry (reference value: 95.5%); type: functional
[13] = system: HeLa; experiment: Cell cycle arrest in human HeLa cells assessed as accumulation at G2/M phase at 5 uM after 24 hrs by propidium iodide staining based flow cytometry (reference value: 9.89%); type: functional
[14] = system: HeLa; experiment: Induction of apoptosis in human HeLa cells assessed as necrotic cells at 10 uM after 24 hrs by Annexin-V FITC/propidium iodide staining based flow cytometry (reference value: 1.81%); type: functional
[15] = system: HeLa; experiment: Cell cycle arrest in human HeLa cells assessed as accumulation at G1 phase at 5 uM after 24 hrs by propidium iodide staining based flow cytometry (reference value: 66.42%); type: functional
[16] = system: HeLa; experiment: Cell cycle arrest in human HeLa cells assessed as accumulation at S phase at 5 uM after 24 hrs by propidium iodide staining based flow cytometry (reference value: 23.69%); type: functional
[17] = system: HeLa; experiment: Cell cycle arrest in human HeLa cells assessed as accumulation at S phase after 24 hrs by propidium iodide staining based flow cytometry; type: functional
[18] = system: HeLa; experiment: Induction of apoptosis in human HeLa cells assessed as live cells at 5 uM after 24 hrs by Annexin-V FITC/propidium iodide staining based flow cytometry (reference value: 95.5%); type: functional
[19] = system: HeLa; experiment: Induction of apoptosis in human HeLa cells assessed as chromatin condensation after 24 hrs by acridine orange/ethidium bromide staining based fluorescence confocal microscopic method; type: functional, cell-based
[20] = system: HeLa; experiment: Induction of apoptosis in human HeLa cells assessed as crescent shaped cell masses at 5 to 10 uM after 24 hrs by […] staining based fluorescence microscopic method; type: functional
[21] = system: HeLa; experiment: Induction of apoptosis in human HeLa cells assessed as late apoptotic cells at 5 uM after 24 hrs by Annexin-V FITC/propidium iodide staining based flow cytometry (reference value: 0.29%); type: functional
[22] = system: HeLa; experiment: Induction of apoptosis in human HeLa cells after 24 hrs by Annexin-V FITC/propidium iodide staining based flow cytometry; type: functional, cell-based
[23] = system: HeLa; experiment: Induction of apoptosis in human HeLa cells assessed as ring shaped cell masses at 5 to 10 uM after 24 hrs by […] staining based fluorescence microscopic method; type: functional

CC(C)(C)c1nc(Nc2ccccc2Cl)sc1Cc1ccc2c(c1)OCO2
IC50 [1]: 8.99 µM | IC50 [2]: 6.84 µM | IC50 [3]: 18.9 µM

CC(C)(C)c1nc(Nc2cccc(Cl)c2Cl)sc1Cc1ccc2c(c1)OCO2
IC50 [1]: 19.4 µM | IC50 [2]: 14.2 µM | IC50 [3]: 34.6 µM

CC(C)(C)c1nc(Nc2ccccc2Br)sc1Cc1ccc2c(c1)OCO2
IC50 [1]: 39.9 µM | IC50 [2]: 26.1 µM | IC50 [3]: 52 µM

Cc1cccc(Nc2nc(C(C)(C)C)c(Cc3ccc4c(c3)OCO4)s2)c1
IC50 [1]: 4.91 µM | IC50 [2]: 12.7 µM | IC50 [3]: 18.8 µM

CC(C)(C)c1nc(Nc2c(Br)cc(OC(F)(F)F)cc2Br)sc1Cc1ccc2c(c1)OCO2
IC50 [1]: 103 µM | IC50 [2]: 103 µM | IC50 [3]: 53.3 µM

CC(C)(C)c1nc(Nc2cccc3ccccc23)sc1Cc1ccc2c(c1)OCO2
IC50 [1]: 22.3 µM | IC50 [2]: 55.2 µM | IC50 [3]: 14.1 µM

Cc1ccc(Nc2nc(C(C)(C)C)c(Cc3ccc4c(c3)OCO4)s2)cc1C
IC50 [1]: 20.4 µM | IC50 [2]: 12.2 µM | IC50 [3]: 20.7 µM

CC(C)(C)c1nc(Nc2ccc([N+](=O)[O-])cc2F)sc1Cc1ccc2c(c1)OCO2
IC50 [1]: 33.3 µM | IC50 [2]: 67.2 µM | IC50 [3]: 19.3 µM

Cc1ccccc1Nc1nc(C(C)(C)C)c(Cc2ccc3c(c2)OCO3)s1
IC50 [1]: 19.1 µM | IC50 [2]: 18.7 µM | IC50 [3]: 24.8 µM

Cc1ccc(Nc2nc(C(C)(C)C)c(Cc3ccc4c(c3)OCO4)s2)c(C)c1
IC50 [1]: 18.7 µM | IC50 [2]: 11.3 µM | IC50 [3]: 18.9 µM

CC(C)(C)c1nc(Nc2ccc(C(F)(F)F)cc2)sc1Cc1ccc2c(c1)OCO2
IC50 [1]: 3.54 µM | IC50 [2]: 9.22 µM | IC50 [3]: 10.4 µM

CC(C)(C)c1nc(Nc2ccc(F)cc2)sc1Cc1ccc2c(c1)OCO2
IC50 [1]: 15 µM | IC50 [2]: 5.81 µM | IC50 [3]: 25.3 µM

CC(C)(C)c1nc(Nc2ccccc2[N+](=O)[O-])sc1Cc1ccc2c(c1)OCO2
IC50 [1]: > 200 µM | IC50 [2]: 82.8 µM | IC50 [3]: 194 µM

O=c1[nH]cc(F)c(=O)[nH]1 [FLUOROURACIL]
IC50 [1]: 79.3 µM | IC50 [2]: 26 µM | IC50 [3]: 56.5 µM

CC(C)(C)c1nc(Nc2ccc(F)c(Cl)c2)sc1Cc1ccc2c(c1)OCO2
Activity [4]: 0.61% | Activity [5]: 53.81% | Activity [6]: 9.56% | Activity [7]: Dose-dependent effect | Activity [8]: 11.7% | IC50 [1]: 8.66 µM | Activity [9]: 36.63% | Activity [10]: 4.39% | Activity [11]: 19.5% | Activity [12]: 75.2% | Activity [13]: 10.51% | Activity [14]: 0.94% | Activity [15]: 60.8% | Activity [16]: 28.69% | Activity [17]: Dose-dependent effect | Activity [18]: 86.1% | IC50 [2]: 16.3 µM | Activity [19]: Dose-dependent effect | Activity [20]: Active | IC50 [3]: 4.6 µM | Activity [21]: 1.58% | Activity [22]: Dose-dependent effect | Activity [23]: Active

CC(C)(C)c1nc(Nc2ccc([N+](=O)[O-])cc2)sc1Cc1ccc2c(c1)OCO2
IC50 [1]: 2.55 µM | IC50 [2]: 8.26 µM | IC50 [3]: 4.15 µM

CC(C)(C)c1nc(Nc2ccc([N+](=O)[O-])cc2Cl)sc1Cc1ccc2c(c1)OCO2
IC50 [1]: 76.5 µM | IC50 [2]: 80.9 µM | IC50 [3]: 51.7 µM

CC(C)(C)c1nc(Nc2ccccc2)sc1Cc1ccc2c(c1)OCO2
IC50 [1]: 11.6 µM | IC50 [2]: 20.4 µM | IC50 [3]: 12 µM

CC(C)(C)c1nc(Nc2ccc(Br)cc2)sc1Cc1ccc2c(c1)OCO2
IC50 [1]: 4.71 µM | IC50 [2]: 10.1 µM | IC50 [3]: 13.3 µM

CC(C)(C)c1nc(Nc2cc(Cl)cc(Cl)c2)sc1Cc1ccc2c(c1)OCO2
IC50 [1]: 17.7 µM | IC50 [2]: 17 µM | IC50 [3]: 5.8 µM

CCOC(=O)c1ccc(Nc2nc(C(C)(C)C)c(Cc3ccc4c(c3)OCO4)s2)cc1
IC50 [1]: 5.95 µM | IC50 [2]: 8.51 µM | IC50 [3]: 47.5 µM

CC(=O)O[C@H]1C(=O)[C@@]2(C)[C@H]([C@H](OC(=O)c3ccccc3)[C@]3(O)C[C@H](OC(=O)[C@H](O)[C@@H](NC(=O)c4ccccc4)c4ccccc4)C(C)=C1C3(C)C)[C@]1(OC(C)=O)CO[C@@H]1C[C@@H]2O [PACLITAXEL]
IC50 [1]: 14 µM | IC50 [2]: 21 µM | IC50 [3]: 19.3 µM

CC(C)(C)c1nc(Nc2ccccn2)sc1Cc1ccc2c(c1)OCO2
IC50 [1]: 4.71 µM | IC50 [2]: 5.13 µM | IC50 [3]: 4.79 µM

CC(C)(C)c1nc(Nc2cccc(Cl)c2)sc1Cc1ccc2c(c1)OCO2
IC50 [1]: 3 µM | IC50 [2]: 2.06 µM | IC50 [3]: 8.27 µM

CC(C)(C)c1nc(Nc2cc(C(F)(F)F)cc(C(F)(F)F)c2)sc1Cc1ccc2c(c1)OCO2
Activity [4]: 0.69% | Activity [5]: 46.14% | Activity [6]: 17.93% | Activity [7]: Dose-dependent effect | Activity [8]: 19.2% | IC50 [1]: 9.03 µM | Activity [9]: 35.93% | Activity [10]: 1.94% | Activity [11]: 62.7% | Activity [12]: 35.1% | Activity [13]: 16.03% | Activity [14]: 0.23% | Activity [15]: 56.87% | Activity [16]: 27.1% | Activity [17]: Dose-dependent effect | Activity [18]: 77.8% | IC50 [2]: 3.52 µM | Activity [19]: Dose-dependent effect | Activity [20]: Active | IC50 [3]: 2.07 µM | Activity [21]: 2.27% | Activity [22]: Dose-dependent effect | Activity [23]: Active

CC(C)(C)c1nc(Nc2ccc(Cl)c(Cl)c2)sc1Cc1ccc2c(c1)OCO2
IC50 [1]: 11.2 µM | IC50 [2]: 11.5 µM | IC50 [3]: 7.83 µM

CC(C)(C)c1nc(Nc2cccc(Br)c2)sc1Cc1ccc2c(c1)OCO2
IC50 [1]: 4.66 µM | IC50 [2]: 5 µM | IC50 [3]: 6.43 µM

CC(C)(C)c1nc(Nc2cccc(C(F)(F)F)c2)sc1Cc1ccc2c(c1)OCO2
IC50 [1]: 3.32 µM | IC50 [2]: 15.8 µM | IC50 [3]: 13 µM

CC(C)(C)c1nc(Nc2ccc(Cl)cc2)sc1Cc1ccc2c(c1)OCO2
IC50 [1]: 3.48 µM | IC50 [2]: 9.19 µM | IC50 [3]: 11 µM

CC(C)(C)c1nc(Nc2ccccc2F)sc1Cc1ccc2c(c1)OCO2
IC50 [1]: 4.49 µM | IC50 [2]: 7.57 µM | IC50 [3]: 18.3 µM

Cc1cccc(C)c1Nc1nc(C(C)(C)C)c(Cc2ccc3c(c2)OCO3)s1
IC50 [1]: 20.1 µM | IC50 [2]: 15.9 µM | IC50 [3]: 83.5 µM

Cc1ccc2cccc(Nc3nc(C(C)(C)C)c(Cc4ccc5c(c4)OCO5)s3)c2n1
IC50 [1]: > 200 µM | IC50 [2]: 55.5 µM | IC50 [3]: 65.1 µM

COc1ccc(Nc2nc(C(C)(C)C)c(Cc3ccc4c(c3)OCO4)s2)cc1
IC50 [1]: 9.36 µM | IC50 [2]: 10.1 µM | IC50 [3]: 11.7 µM

Reference: ChEMBL document CHEMBL3992482 (Medchemcomm, 2016)
